Assay results from patent US9353048B2, “Compound as KCNQ potassium channel agonist, preparation method therefor and use thereof” (SHANGHAI INSTITUTE OF MATERIA MEDICA, CHINESE ACADEMY OF …, priority 2011, dated 2016).
“And” between values parts separate entries of the source, which are not always exact repeats. Equal entries are not always repeated. “Also recorded” adds a separate entry of the source. Structures can show the parent of a compound that is named as a salt. Marks after values point to notes of the source that are not given here.

Tests used:
[1] = Solubility in water (treatment of samples)
[2] = tested on: Animal Models Induced by PTZ (Pentylenetetrazole); assay: PTZ test, compounds by intraperitoneal injection, KM mice; format: in vivo; settings: for Incidence rate of convulsion: PTZ 100 mg/kg s.c. 30 min later, observation 1 h
Experimental: Compounds to be tested were administrated by intraperitoneal injection (10 mg/kg, 5 mg/kg, 2.5 mg/kg, 0.1 ml/10 g).

[3] = tested on: Animal Models Induced by MES; assay: MES test, compounds orally administrated (gastric lavage), KM mice; format: in vivo; settings: for Incidence rate of convulsion / Protection rate of compounds: 30 mg/kg gastric lavage, MES 1 hour later; for effect in MES test (in words): gastric lavage
Experimental: (§1) One time of electrical stimulation was applied to animals through ear clip electrodes, and a convulsion characterized by a tonic hind limb extension was observed. One day before the test, animals were screened in the above procedure to record the values of MES.
1 hour later, MES was applied according to parameters set the last day, and response of animals were observed and recorded immediately.

[4] = tested on: Animal Models Induced by MES (Maximum Electroshock); assay: MES test, compounds by intraperitoneal injection, KM mice; format: in vivo; settings: 10 mg/kg i.p.; for Mortality rate / Incidence of convulsion: MES 30 min later; for Incidence of convulsion: tonic hind limb extension
Excerpt: as §1

[5] = tested on: Animal Models Induced by PTZ; assay: PTZ test, compounds orally administrated (gastric lavage), KM mice; settings: for Incidence of tonic fore limb extension / Incidence of tonic hind limb extension / Latency period of clonus / Latency period of fore limb extension / Mortality rate / Incidence rate of clonus: 30 mg/kg gastric lavage; for Incidence rate of clonus: PTZ 100 mg/kg s.c. 1 h later, observation 1 h; for effect in PTZ test (in words): gastric lavage
Experimental: Response of animals were observed immediately and recorded within a period of 1 h.

[6] = tested on: KCNQ channels; assay: Whole-cell voltage-clamp electrophysiological recording in CHO cells transfected with KCNQ channels; format: cell-based; settings: for I/I0: activation multiple, maximum induced current at −10 mV testing voltage after administration (10 μM) vs before, >1 activating, <1 inhibiting; for ΔV1/2: shift of V1/2 of current activation curve, negative sign = left-ward shift, CHO cells
Experimental: The formulation of culture fluid for Chinese hamster […] (CHO) (Culture Collection of Chinese Academy of Sciences): 50/50 DMEM/F-12 (Cellgro, Mamassas, Va.), 10% fetal bovine serum (FBS) (Gibco, Australia) and 2 mM […] (Invitrogen). […] Lipofectamine2000™ agent (Invitrogen) was used for Transfection according to the protocol thereof. […] After cotransfection with GFP (green fluorescent protein), transfected cells could be determined under a fluorescence microscopy.
Whole-cell voltage-clamp recording was performed by using Axopatch-200B amplifier (Molecular Devices, Sunnyvale, Calif.) at room temperature. Borosilicate glass capillary tubes (World Precision Instruments, Sarasota, Fla.) were drawn into electrodes. The electric resistance of the electrodes filled with an intracellular fluid is 3 to 5 MΩ. […] During the recording, an extracellular fluid was continuously perfused by using a BPS perfusion system (ALA Scientific Instruments, Westburg, N.Y.). The formulation of the extracellular fluid was as follows: 140 mM NaCl, 5 mM KCl, 2 mM CaCl2, 1.5 mM MgCl2, 10 mM HEPES and 10 mM glucose (the pH value of the extracellular fluid was adjusted to 7.4 with NaOH). […] Resistors were connected in series to compensate 60 to 80% of signal loss. At present, multivoltage scheme was generally adopted, wherein the clamp voltage was set at −100 mV. Current was induced in cells by a series of 2000 ms stimulating voltage (from −90 mV up to +50 mV, with interval of 10 mV).
In the following table, V1/2 is the voltage at which 50% of cells were activated, ΔV1/2 is amount of a left-ward shift of V1/2, negative sign (−) represents a left-ward shift of the current activation curve and positive sign (+) represents a right-ward shift of the curve. I/I0 is the activation multiple, wherein, I0 is the maximum induced current produced under stimulation of −10 mV testing voltage, I is the maximum induced current produced under stimulation of −10 mV testing voltage after administration (10 μM), I/I0>1 represents activating activity, and I/I0<1 represents inhibiting activity. N is the number of tested cells. NT represents non-tested.

[7] = in vivo; settings: mouse, 20 mg/kg
Experimental: Two hours after administration, animal were fed uniformly. Specific arrangement was as following table.
After administration by gastric lavage or intravenous injection, mice were sacrificed by cutting abdominal aorta at time points set as the above with 3 mice for each time point. 0.5 mL of whole blood was collected for each animal, placed into a heparinized test tube and subjected to centrifugation at 3000 rpm to separate plasma, which was then cryopreserved in a −20° C. refrigerator. After the animals were sacrificed, their whole brain was collected, washed with ice-cooled physiological saline to remove residual blood. Then the residual liquid was absorbed to dryness. The treated brain was labeled and cryopreserved in a −20° C. refrigerator.

[8] = tested on: Convulsion Induced by Pentylenetetrazole (PTZ); assay: Convulsion induced by pentylenetetrazole (PTZ), compounds by gastric lavage, C57BL/6J mice; format: in vivo; settings: 30 mg/kg gastric lavage; for Latency period of clonus / Latency period of whole-body tonic seizures / Mortality rate / Incidence rate of convulsion: PTZ 80 mg/kg s.c. 1 h later; for Incidence rate of convulsion: observed 60 min; for anti-convulsive effect (in words): PTZ-induced convulsion
Experimental: The compounds to be tested were administrated to animals by gastric lavage (30 mg/kg); one hour later, pentylenetetrazole was administrated by subcutaneous injection (PTZ 80 mg/kg); and response of animals were observed within a period of 60 min.

C#CCN(Cc1ccc(F)cc1)c1ccc(NC(=O)OCC)c(N)c1 [Compound K21, ethyl 2-amino-4-(N-parafluorobenzyl-N-propargyl-imino)-aniline formate]
solubility in water (in words) [1]: can not be easily dissolved in water
Incidence of tonic fore limb extension ([2]; 2.5 mg/kg i.p.): 2/10
Incidence of tonic hind limb extension ([2]; 2.5 mg/kg i.p.): 0/10***
Latency period of clonus ([2]; 2.5 mg/kg i.p.): 184 ± 42 s
Mortality rate ([2]; 2.5 mg/kg i.p.): 1/10**
Incidence rate of convulsion ([2]; 2.5 mg/kg i.p.): 9/10
Incidence of tonic fore limb extension ([2]; 5 mg/kg i.p.): 3/10
Incidence of tonic hind limb extension ([2]; 5 mg/kg i.p.): 0/10***
Latency period of clonus ([2]; 5 mg/kg i.p.): 238 ± 54 s
Mortality rate ([2]; 5 mg/kg i.p.): 1/10**
Incidence rate of convulsion ([2]; 5 mg/kg i.p.): 10/10
Incidence of tonic hind limb extension ([2]; 10 mg/kg i.p.): 0/12***
Mortality rate ([2]; 10 mg/kg i.p.): 0/12***
Incidence rate of convulsion ([2]; 10 mg/kg i.p.): 12/12
sedative effect ([2]; intraperitoneal injection): some sedative effect
anti-convulsive effect compared with retigabine (in words) ([2]; intraperitoneal injection, same dosage, PTZ and MES tests): slightly stronger than that of retigabine
Incidence rate of convulsion [3]: 2/13***
Protection rate of compounds [3]: 84.6%***
effect in MES test (in words) [3]: significantly inhibiting the incidence of the grand mal seizure
grand mal seizure in MES test (in words) [4]: completely avoided the grand mal seizure
Mortality rate [4]: 0
Incidence of convulsion [4]: 2/10***
Incidence of tonic fore limb extension [5]: 5/12
Incidence of tonic hind limb extension [5]: 0/12**
Latency period of clonus [5]: 148 ± 37 s
Latency period of fore limb extension [5]: 1561 ± 690 s
Mortality rate [5]: 3/12
Incidence rate of clonus [5]: 12/12
effect in PTZ test (in words) [5]: significantly inhibit tonic seizures
I/I0 [6]: 1.53 ± 0.15
ΔV1/2 [6]: −47.9 ± 3.5 mV

C#CCN(Cc1ccc(F)cc1)c1ccc(NC(=O)OC)cc1 [Compound K9, methyl 4-(N-parafluorobenzyl-N-propargyl-imino)-aniline formate]
solubility in water (in words) [1]: can not be easily dissolved in water
Kp ([7]; male, KM): 1.9
bioavailability ([7]; male, KM): 26%
AUC(0-t) ([7]; male, KM, iv): 7180 ng·h/mL
Kp ([7]; male, KM, iv): 1.5
clearance ([7]; male, KM, iv): 46.3 mL/min/kg
AUC(0-t) ([7]; male, KM, po): 1860 ng·h/mL
Cmax ([7]; male, KM, po): 2200 ng/mL and 4420 ng/g
half-life ([7]; male, KM, po): ~1.2 h
area under the concentration-time curve (AUC0-t) in brain tissue [7]: 3565 ng·h/g
area under the concentration-time curve (AUC0-t) of brain tissue ([7]; iv): 10694 ng·h/g
Latency period of clonus [8]: 351 ± 84.3 s
Latency period of whole-body tonic seizures [8]: 1382 ± 339 s
Mortality rate [8]: 4/10
Incidence rate of convulsion [8]: 4/10
anti-convulsive effect (in words) [8]: comparable anti-convulsive effect
I/I0 [6]: 3.27 ± 0.10
ΔV1/2 [6]: −24.21 ± 2.4 mV

CCOC(=O)Nc1ccc(NCc2ccc(F)cc2)cc1N [Retigabine, retigabine, reference compound]
solubility in water (in words) [1]: can be easily dissolved in water
Incidence of tonic fore limb extension ([2]; 2.5 mg/kg i.p.): 5/10
Incidence of tonic hind limb extension ([2]; 2.5 mg/kg i.p.): 1/10**
Latency period of clonus ([2]; 2.5 mg/kg i.p.): 179 ± 60 s
Latency period of tonic hind limb ([2]; 2.5 mg/kg i.p.): 827 s
Mortality rate ([2]; 2.5 mg/kg i.p.): 7/10
Incidence rate of convulsion ([2]; 2.5 mg/kg i.p.): 10/10
Incidence of tonic fore limb extension ([2]; 5 mg/kg i.p.): 4/10
Incidence of tonic hind limb extension ([2]; 5 mg/kg i.p.): 2/10*
Latency period of clonus ([2]; 5 mg/kg i.p.): 184 ± 40 s
Latency period of tonic hind limb ([2]; 5 mg/kg i.p.): 883 ± 151 s
Mortality rate ([2]; 5 mg/kg i.p.): 5/10
Incidence rate of convulsion ([2]; 5 mg/kg i.p.): 10/10
Incidence of tonic hind limb extension ([2]; 10 mg/kg i.p.): 4/12*
Latency period of clonus ([2]; 10 mg/kg i.p.): 239 ± 113 s
Latency period of tonic hind limb ([2]; 10 mg/kg i.p.): 1100 ± 319 s
Mortality rate ([2]; 10 mg/kg i.p.): 2/12**
Incidence rate of convulsion ([2]; 10 mg/kg i.p.): 10/10
sedative effect ([2]; intraperitoneal injection): some sedative effect
Incidence rate of convulsion [3]: 5/13***
Protection rate of compounds [3]: 61.5%***
effect in MES test (in words) [3]: significantly inhibiting the incidence of the grand mal seizure; also recorded: comparable effect
Mortality rate [4]: 0
Incidence of convulsion [4]: 4/11**
Incidence of tonic fore limb extension [5]: 3/12**
Incidence of tonic hind limb extension [5]: 0/12**
Latency period of clonus [5]: 177 ± 70 s
Latency period of fore limb extension [5]: 1063 ± 284 s
Mortality rate [5]: 0/12**
Incidence rate of clonus [5]: 12/12
effect in PTZ test (in words) [5]: obviously reduce the incidence rate of convulsion and mortality rate; also recorded: significantly reduce the incidence rate of convulsion and mortality rate
Latency period of clonus [8]: No typical
Latency period of whole-body tonic seizures [8]: 1472 ± 961 s
Mortality rate [8]: 4/10
Incidence rate of convulsion [8]: 5/10
anti-convulsive effect (in words) [8]: comparable anti-convulsive effect
behaviour of animals after administration ([8]; returned to normal after 20 min): quite and less active
